Experimental data from ChEMBL document CHEMBL5537181 (J Med Chem, 2024).
The source made the active and inactive calls.

How the values were obtained:
[1] = Antagonist activity at human alpha9N152G mutant alpha10 nAChR expressed in acetylcholine-induced Xenopus laevis oocytes assessed as inhibition of acetylcholine-induced current at 1:1 ratio of protein by two electrode voltage-clamp assay; format: cell-based; conditions: Oocyte
[2] = Antagonist activity at human alpha9alpha10G152N mutant nAChR expressed in acetylcholine-induced Xenopus laevis oocytes assessed as inhibition of acetylcholine-induced current at 1:3 ratio of protein by two electrode voltage-clamp assay; format: cell-based; conditions: Oocyte
[3] = biological target: Neuronal acetylcholine receptor; alpha9/alpha10 (Homo sapiens) (UniProt Q9UGM1+Q9GZZ6); assay: Antagonist activity at human wild type alpha9alpha10 nAChR expressed in acetylcholine-induced Xenopus laevis oocytes assessed as inhibition of acetylcholine-induced current at 30 nM by two electrode voltage-clamp assay relative to control; format: cell-based; conditions: Oocyte, filed as antagonist
[4] = biological target: Neuronal acetylcholine receptor; alpha3/beta2 (Homo sapiens) (UniProt P17787+P32297); assay: Antagonist activity at human alpha3beta2 nAChR expressed in acetylcholine-induced Xenopus laevis oocytes assessed as inhibition of acetylcholine-induced current at 100 nM by two electrode voltage-clamp assay relative to control; format: cell-based; conditions: Oocyte
[5] = biological target: Neuronal acetylcholine receptor subunit alpha-7 (Homo sapiens, UniProt P36544); assay: Antagonist activity at human alpha7 nAChR expressed in acetylcholine-induced Xenopus laevis oocytes assessed as inhibition of acetylcholine-induced current at 100 nM by two electrode voltage-clamp assay; format: cell-based; conditions: Oocyte, filed as antagonist
[6] = biological target: Neuronal acetylcholine receptor; alpha3/beta2 (Rattus norvegicus) (UniProt P04757+P12390); assay: Antagonist activity at rat alpha3beta2 nAChR expressed in acetylcholine-induced Xenopus laevis oocytes assessed as inhibition of acetylcholine-induced current at 100 nM by two electrode voltage-clamp assay; format: cell-based; conditions: Oocyte
[7] = biological target: Neuronal acetylcholine receptor; alpha4/beta2 (Rattus norvegicus) (UniProt P09483+P12390); assay: Antagonist activity at rat alpha4beta2 nAChR expressed in acetylcholine-induced Xenopus laevis oocytes assessed as inhibition of acetylcholine-induced current at 100 nM by two electrode voltage-clamp assay; format: cell-based; conditions: Oocyte
[8] = biological target: Neuronal acetylcholine receptor; alpha3/beta4 (Rattus norvegicus) (UniProt P04757+P12392); assay: Antagonist activity at rat alpha3beta4 nAChR expressed in acetylcholine-induced Xenopus laevis oocytes assessed as inhibition of acetylcholine-induced current at 100 nM by two electrode voltage-clamp assay relative to control; format: cell-based; conditions: Oocyte
[9] = biological target: Neuronal acetylcholine receptor subunit alpha-7 (Rattus norvegicus) (UniProt Q05941); assay: Antagonist activity at rat alpha7 nAChR expressed in acetylcholine-induced Xenopus laevis oocytes assessed as inhibition of acetylcholine-induced current at 100 nM by two electrode voltage-clamp assay relative to control; format: cell-based; conditions: Oocyte
[10] = biological target: Voltage-dependent N-type calcium channel subunit alpha-1B (Homo sapiens, UniProt Q00975); assay: Inhibition of human Cav2.2 channel transfected in HEK293T cells assessed as inhibition of Cav2.2-mediated Ba2+ current measured for 3 to 5 days by whole-cell patch clamp assay; format: cell-based
Rattus norvegicus [11] = assay: Analgesic activity in Chronic constriction injury rat model assessed as increase in paw withdrawal threshold at 250 microg/kg,IM administration and measured for 0.5 to 48 hrs; format: functional, organism-based; conditions: dose 250.0 µg/kg, time 0.5-48 hrs
Rattus norvegicus [12] = assay: Analgesic activity in Chronic constriction injury rat model assessed as increase in paw withdrawal latency at 250 microg/kg,IM administration and measured for 0.5 to 48 hrs; format: functional, organism-based; conditions: dose 250.0 µg/kg, time 0.5-48 hrs
Rattus norvegicus [13] = assay: Analgesic activity in Chronic constriction injury rat model assessed as decrease in hyperalgesia at 250 microg/kg,IM administrated every 2 hrs for 7 days; format: functional, organism-based; conditions: dose 250.0 µg/kg, time 7.0 day
[14] = biological target: Sodium channel protein type 10 subunit alpha (Homo sapiens) (UniProt Q9Y5Y9); assay: Inhibition of Nav1.8 (unknown origin) at 1 uM
[15] = biological target: T1, Potassium/sodium hyperpolarization-activated cyclic nucleotide-gated channel 2 (Homo sapiens) (UniProt Q9UL51); assay: Inhibition of HCN2 (unknown origin) at 1 uM
T1 sequence (whole entry): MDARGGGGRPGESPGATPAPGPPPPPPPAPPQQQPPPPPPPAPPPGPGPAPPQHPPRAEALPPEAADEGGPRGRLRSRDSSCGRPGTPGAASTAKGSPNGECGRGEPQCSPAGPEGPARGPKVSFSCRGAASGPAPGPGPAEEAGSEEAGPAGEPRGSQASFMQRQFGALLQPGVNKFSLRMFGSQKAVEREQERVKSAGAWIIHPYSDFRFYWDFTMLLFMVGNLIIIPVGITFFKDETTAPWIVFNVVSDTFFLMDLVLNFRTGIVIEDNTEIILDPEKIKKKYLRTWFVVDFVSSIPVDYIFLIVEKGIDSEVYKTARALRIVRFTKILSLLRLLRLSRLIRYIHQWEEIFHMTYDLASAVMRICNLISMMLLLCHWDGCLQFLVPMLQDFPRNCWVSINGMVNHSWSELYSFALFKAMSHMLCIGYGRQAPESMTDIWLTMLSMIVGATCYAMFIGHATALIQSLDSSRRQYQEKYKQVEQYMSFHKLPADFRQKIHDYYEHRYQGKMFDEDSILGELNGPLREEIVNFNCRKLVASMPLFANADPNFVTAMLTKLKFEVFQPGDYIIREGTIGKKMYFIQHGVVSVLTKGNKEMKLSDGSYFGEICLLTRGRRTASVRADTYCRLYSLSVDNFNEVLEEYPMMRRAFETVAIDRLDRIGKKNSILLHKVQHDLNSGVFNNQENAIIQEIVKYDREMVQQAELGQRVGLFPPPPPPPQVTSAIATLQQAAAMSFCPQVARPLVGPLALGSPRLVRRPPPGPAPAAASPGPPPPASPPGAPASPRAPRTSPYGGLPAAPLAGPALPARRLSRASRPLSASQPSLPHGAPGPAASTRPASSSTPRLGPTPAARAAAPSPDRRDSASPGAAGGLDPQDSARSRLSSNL

[16] = biological target: T2, Acid-sensing ion channel 3 (Homo sapiens) (UniProt Q9UHC3); assay: Inhibition of ASIC3 (unknown origin) at 1 uM
T2 sequence (whole entry): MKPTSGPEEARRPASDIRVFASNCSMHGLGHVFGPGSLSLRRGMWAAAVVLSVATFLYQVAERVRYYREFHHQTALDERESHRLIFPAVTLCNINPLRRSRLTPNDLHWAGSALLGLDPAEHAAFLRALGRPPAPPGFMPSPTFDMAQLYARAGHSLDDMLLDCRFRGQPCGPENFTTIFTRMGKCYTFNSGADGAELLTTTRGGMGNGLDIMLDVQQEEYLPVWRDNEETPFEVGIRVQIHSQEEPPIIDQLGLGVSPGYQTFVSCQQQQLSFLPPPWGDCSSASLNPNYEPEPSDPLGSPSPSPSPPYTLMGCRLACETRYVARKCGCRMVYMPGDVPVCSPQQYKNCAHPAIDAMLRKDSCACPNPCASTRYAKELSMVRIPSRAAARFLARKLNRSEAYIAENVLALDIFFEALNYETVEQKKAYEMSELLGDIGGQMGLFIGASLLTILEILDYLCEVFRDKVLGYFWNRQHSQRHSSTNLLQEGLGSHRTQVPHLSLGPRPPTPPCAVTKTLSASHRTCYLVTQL

Chain of Neuronal acetylcholine receptor subunit alpha-7 (P36544 whole entry): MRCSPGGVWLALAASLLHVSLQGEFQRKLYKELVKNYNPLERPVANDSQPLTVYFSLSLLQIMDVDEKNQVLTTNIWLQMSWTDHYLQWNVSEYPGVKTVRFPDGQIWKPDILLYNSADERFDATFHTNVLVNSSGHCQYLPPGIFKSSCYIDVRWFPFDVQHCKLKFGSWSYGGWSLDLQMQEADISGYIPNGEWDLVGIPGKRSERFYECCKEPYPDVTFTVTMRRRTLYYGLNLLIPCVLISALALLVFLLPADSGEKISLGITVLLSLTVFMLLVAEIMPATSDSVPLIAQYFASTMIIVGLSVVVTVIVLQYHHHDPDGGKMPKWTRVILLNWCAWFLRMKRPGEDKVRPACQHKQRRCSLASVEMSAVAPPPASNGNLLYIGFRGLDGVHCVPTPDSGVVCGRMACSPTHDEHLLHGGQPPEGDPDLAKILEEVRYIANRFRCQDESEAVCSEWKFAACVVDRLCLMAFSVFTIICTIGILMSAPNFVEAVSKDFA
Chain of Voltage-dependent N-type calcium channel subunit alpha-1B (Q00975 whole entry): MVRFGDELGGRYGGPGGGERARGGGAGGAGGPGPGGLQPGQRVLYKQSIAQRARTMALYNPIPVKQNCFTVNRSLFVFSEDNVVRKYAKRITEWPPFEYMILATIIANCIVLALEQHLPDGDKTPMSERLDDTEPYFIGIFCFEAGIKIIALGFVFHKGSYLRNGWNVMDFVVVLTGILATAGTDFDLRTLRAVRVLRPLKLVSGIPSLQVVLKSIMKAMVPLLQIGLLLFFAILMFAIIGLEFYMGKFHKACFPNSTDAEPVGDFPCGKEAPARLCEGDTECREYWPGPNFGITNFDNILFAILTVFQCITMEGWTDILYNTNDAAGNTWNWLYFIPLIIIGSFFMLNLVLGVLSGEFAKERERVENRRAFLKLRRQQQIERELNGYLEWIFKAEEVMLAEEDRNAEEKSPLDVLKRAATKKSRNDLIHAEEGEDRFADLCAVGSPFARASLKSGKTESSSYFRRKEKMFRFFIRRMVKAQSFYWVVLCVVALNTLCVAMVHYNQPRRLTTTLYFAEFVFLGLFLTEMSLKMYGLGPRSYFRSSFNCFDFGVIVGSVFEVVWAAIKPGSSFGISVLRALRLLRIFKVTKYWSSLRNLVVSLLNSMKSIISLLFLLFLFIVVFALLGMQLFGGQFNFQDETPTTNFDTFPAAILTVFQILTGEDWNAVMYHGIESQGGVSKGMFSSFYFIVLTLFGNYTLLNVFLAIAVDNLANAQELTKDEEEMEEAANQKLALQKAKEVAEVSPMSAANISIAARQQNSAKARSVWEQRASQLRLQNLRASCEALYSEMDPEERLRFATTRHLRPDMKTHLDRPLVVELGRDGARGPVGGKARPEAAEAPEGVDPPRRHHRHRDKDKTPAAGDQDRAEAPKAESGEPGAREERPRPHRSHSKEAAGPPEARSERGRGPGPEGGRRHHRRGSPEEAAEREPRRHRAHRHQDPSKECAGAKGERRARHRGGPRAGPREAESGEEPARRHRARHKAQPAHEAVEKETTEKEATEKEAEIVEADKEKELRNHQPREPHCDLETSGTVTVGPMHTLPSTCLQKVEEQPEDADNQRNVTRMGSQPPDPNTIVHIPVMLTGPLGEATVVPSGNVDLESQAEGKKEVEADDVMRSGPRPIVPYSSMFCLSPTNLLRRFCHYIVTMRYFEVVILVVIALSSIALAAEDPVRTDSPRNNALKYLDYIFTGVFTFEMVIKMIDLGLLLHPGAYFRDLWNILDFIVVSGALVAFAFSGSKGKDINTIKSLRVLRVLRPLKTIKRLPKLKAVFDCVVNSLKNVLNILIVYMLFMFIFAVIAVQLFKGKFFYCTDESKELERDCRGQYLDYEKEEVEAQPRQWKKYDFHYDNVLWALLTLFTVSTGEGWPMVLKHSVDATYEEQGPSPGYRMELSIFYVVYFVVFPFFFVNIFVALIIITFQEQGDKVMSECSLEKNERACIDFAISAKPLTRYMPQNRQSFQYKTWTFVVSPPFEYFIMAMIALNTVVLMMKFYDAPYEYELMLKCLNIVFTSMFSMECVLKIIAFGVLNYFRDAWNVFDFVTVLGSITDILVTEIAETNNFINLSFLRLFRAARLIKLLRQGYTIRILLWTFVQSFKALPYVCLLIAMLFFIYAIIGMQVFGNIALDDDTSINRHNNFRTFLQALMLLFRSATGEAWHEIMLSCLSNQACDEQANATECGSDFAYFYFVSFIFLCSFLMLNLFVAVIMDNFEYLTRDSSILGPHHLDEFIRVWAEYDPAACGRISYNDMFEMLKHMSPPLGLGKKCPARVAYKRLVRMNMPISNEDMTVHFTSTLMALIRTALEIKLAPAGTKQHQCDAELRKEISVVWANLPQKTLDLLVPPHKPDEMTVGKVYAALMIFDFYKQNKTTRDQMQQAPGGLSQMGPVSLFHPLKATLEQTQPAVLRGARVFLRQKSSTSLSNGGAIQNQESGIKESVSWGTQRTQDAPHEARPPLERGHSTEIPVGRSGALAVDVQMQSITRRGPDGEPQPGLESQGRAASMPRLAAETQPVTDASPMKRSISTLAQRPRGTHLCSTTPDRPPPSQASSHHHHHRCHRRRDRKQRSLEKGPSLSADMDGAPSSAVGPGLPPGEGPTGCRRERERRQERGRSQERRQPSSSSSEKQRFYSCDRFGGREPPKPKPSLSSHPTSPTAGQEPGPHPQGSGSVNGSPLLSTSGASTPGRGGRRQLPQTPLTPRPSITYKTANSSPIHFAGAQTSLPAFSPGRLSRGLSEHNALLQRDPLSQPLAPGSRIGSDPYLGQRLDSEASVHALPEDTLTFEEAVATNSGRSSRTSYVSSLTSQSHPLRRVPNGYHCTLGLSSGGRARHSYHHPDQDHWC
Chain of Sodium channel protein type 10 subunit alpha (Homo sapiens) (Q9Y5Y9 whole entry, looked up): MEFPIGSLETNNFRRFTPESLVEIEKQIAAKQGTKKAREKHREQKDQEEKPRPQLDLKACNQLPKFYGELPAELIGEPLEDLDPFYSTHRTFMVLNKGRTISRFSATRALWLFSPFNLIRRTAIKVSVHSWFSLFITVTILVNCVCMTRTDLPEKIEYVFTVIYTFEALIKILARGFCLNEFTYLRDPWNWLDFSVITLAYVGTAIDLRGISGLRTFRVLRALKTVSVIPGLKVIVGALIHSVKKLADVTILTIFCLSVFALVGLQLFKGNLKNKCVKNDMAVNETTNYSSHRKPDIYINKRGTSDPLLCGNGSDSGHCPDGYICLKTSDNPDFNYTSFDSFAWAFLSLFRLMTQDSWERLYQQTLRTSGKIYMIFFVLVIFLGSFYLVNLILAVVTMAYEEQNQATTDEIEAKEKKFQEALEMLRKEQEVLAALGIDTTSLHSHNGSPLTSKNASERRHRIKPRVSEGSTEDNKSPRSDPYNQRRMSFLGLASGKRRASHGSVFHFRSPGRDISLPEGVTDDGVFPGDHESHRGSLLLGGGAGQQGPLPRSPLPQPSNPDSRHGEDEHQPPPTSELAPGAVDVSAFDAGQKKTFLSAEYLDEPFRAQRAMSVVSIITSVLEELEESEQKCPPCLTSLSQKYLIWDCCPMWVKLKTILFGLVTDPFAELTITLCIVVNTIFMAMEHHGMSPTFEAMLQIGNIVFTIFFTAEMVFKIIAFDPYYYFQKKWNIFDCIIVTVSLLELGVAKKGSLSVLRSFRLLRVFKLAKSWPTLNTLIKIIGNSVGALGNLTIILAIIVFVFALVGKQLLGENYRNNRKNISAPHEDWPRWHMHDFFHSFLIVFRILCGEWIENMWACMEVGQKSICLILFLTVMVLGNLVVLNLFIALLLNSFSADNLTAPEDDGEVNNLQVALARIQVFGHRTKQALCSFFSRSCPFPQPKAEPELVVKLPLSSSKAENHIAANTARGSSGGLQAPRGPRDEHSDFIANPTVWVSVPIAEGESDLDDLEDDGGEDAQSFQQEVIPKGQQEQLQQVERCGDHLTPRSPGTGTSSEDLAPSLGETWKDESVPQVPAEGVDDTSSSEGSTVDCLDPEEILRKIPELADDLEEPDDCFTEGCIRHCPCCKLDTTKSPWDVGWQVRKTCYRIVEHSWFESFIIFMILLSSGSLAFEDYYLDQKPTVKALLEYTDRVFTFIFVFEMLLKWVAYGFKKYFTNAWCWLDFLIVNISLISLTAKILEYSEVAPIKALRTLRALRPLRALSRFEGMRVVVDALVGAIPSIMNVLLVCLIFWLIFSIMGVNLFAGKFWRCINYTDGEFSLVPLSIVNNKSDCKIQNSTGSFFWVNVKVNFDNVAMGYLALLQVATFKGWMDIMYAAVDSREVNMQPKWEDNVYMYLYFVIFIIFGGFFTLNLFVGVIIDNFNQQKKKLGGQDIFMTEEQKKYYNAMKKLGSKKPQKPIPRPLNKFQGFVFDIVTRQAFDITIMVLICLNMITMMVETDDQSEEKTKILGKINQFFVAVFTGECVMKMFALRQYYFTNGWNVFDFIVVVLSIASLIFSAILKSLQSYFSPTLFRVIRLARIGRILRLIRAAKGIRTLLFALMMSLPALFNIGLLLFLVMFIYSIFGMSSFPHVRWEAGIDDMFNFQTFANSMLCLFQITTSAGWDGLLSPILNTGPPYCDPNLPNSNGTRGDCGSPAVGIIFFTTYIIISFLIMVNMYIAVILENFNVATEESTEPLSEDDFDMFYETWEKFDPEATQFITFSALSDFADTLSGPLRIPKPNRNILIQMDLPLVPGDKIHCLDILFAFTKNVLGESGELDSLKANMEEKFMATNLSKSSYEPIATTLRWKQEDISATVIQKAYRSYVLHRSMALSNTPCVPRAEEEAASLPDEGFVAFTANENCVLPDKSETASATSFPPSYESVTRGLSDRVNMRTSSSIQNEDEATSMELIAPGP

CC[C@H](C)[C@H](NC(=O)[C@H](CCCNC(=N)N)NC(=O)[C@H](CCCNC(=N)N)NC(=O)[C@H](Cc1ccc(O)cc1)NC(=O)[C@H](CCCNC(=N)N)NC(=O)[C@H](CCCNC(=N)N)NC(=O)[C@H](CCCNC(=N)N)NC(=O)[C@H](CCCNC(=N)N)NC(=O)[C@H](CC(=O)O)NC(=O)[C@H](Cc1ccc(O)cc1)NC(=O)[C@@H]1CCCN1C(=O)[C@H](CO)NC(=O)[C@H](CCCNC(=N)N)NC(=O)[C@H](Cc1ccc(O)cc1)NC(=O)[C@H](CCCNC(=N)N)NC(=O)CN)C(=O)N[C@H](C(=O)N[C@@H](CC(=O)O)C(N)=O)[C@@H](C)O gave an IC50 [1] of 3.6 nM, an IC50 [2] of 21 nM and an inhibition [3] of 50%. For the same compound, the inhibition [4] was 25%, the inhibition [5] was 80% and the inhibition [6] was “inactive”. The inhibition [7] was “inactive”, the inhibition [8] was 20% and the inhibition [9] was 35%. For the same compound, the IC50 [10] was 4.6 nM, the Activity (Rattus norvegicus [11]) was “Active” and the Activity (Rattus norvegicus [12]) was “Active”. The Activity (Rattus norvegicus [13]) was “Active”, the inhibition [14] was “inactive” and the inhibition [15] was “inactive”. The inhibition [16] was “inactive”.
